Measurements: patent US20240173389A1, “Compositions and Methods For Reducing Immune Intolerance” (LAPIX THERAPEUTICS, INC., priority 2021, published 2024)

Key:
TLR2 = assay: TNF-α production by splenocytes in response to TLR2 ligand PGN; type: cell-based, C57BL/6 mice; conditions: 48 hours, OPLT 1.85 μg/ml, dexamethasone 100 μg/ml, rapamycin 625 μg/ml
Method: (§1) OPLT was dissolved in sterile PBS at 100 μM, and pH was adjusted to approximately 7.5. Splenocytes from naïve C57BL/6 mice were stained with CFSE, prepared, cultured, and dosed. Cells were seeded at 2×10^5 cells/well.
(§2) To evaluate the effects of OPLT on cytokine production by splenocytes in response to different TLR ligands, splenocytes were incubated with one of the following TLR ligands in triplicate: PGN, LPS, ODN CPG, dsRNA, or ssRNA, as per group assignment. Cells were then treated as follows: • Control: No treatment; • OPLT: Cells were dosed with 1.85 μg/ml; • Dexamethasone: Cells were dosed with 100 μg/ml; • Rapamycin: Cells were dosed with 625 μg/ml. Cells were incubated for 48 hours before collecting the supernatant for TNF-α analysis.
(§3) The supernatant was collected for TNF-α analysis by ELISA.

TLR3 = assay: TNF-α production by splenocytes in response to TLR3 ligand poly(I:C); type: cell-based, C57BL/6 mice; conditions: 48 hours, OPLT 1.85 μg/ml, dexamethasone 100 μg/ml, rapamycin 625 μg/ml
Method: as §1, §2, §3

TLR4 = assay: TNF-α production by splenocytes in response to TLR4 ligand LPS; type: cell-based, C57BL/6 mice; conditions: 48 hours, OPLT 1.85 μg/ml, dexamethasone 100 μg/ml, rapamycin 625 μg/ml
Method: as §1, §2, §3

TLR7 = assay: TNF-α production by splenocytes in response to TLR7 ligand ssPolyU; type: cell-based, C57BL/6 mice; conditions: 48 hours, OPLT 1.85 μg/ml, dexamethasone 100 μg/ml, rapamycin 625 μg/ml
Method: as §1, §2, §3

TLR9 = assay: TNF-α production by splenocytes in response to TLR9 ligand ODN CpG; type: cell-based, C57BL/6 mice; conditions: 48 hours, OPLT 1.85 μg/ml, dexamethasone 100 μg/ml, rapamycin 625 μg/ml
Method: as §1, §2, §3

Splenocytes = assay: Splenocyte culture with anti-CD3/anti-CD28 without antigen, Foxp3+/CD4+ by flow cytometry (Example 4); type: cell-based; conditions: 100 μM, three days, anti-CD3/anti-CD28, absence of any antigen
Method: Splenocytes were cultured for three days in presence of anti-CD3/anti-CD28 in presence of 100 μM PS or 100 μM OPLT in absence of any antigen.

[1] = test system: RAW264.7 mouse monocyte macrophage cells; assay: SAR screen in RAW 264.7 cells with FVIII antigen, TNF-α ELISA (Example 5); type: cell-based; conditions: for TNF-α induction: liposomal (DMPC 70:30) or free form dosed 0.001-100 μM
Excerpt: (§4) RAW264.7 mouse monocyte macrophage cells were exposed to an increasing concentration of selected compounds in the presence of human plasma-derived FVIII as a model antigen protein. TNF-α and TGF-β production were monitored.
All molecules were formulated in RPMI media in aseptic conditions. The pH was adjusted to approximately 7.5 before dosing cells. 1,2-dimyristoyl-sn-glycero-3-phosphocholine (DM PC):PS liposomes were made at 70:30 molar ratio to make “PS” liposomes.
(§5) RAW 264.7 cells were prepared, cultured, and dosed. Cells were seeded at 4×10^5 cells/well. OPLS, OPLT and L-homocysteic acid (LHA) were dosed at 100, 85, 70, 60, 50, 30, 10, 3, 1, 0.3, 0.1, 0.03 and 0.01 mM, or at 100, 85, 70, 60, 50, 30, 10, 3 and 1 mM, as indicated. O-Benzyl-L-serine (OBLS), S-phenyl-L-cysteine (SPLC), S-benzyl-L-cysteine (SBLC) and OBLT were dosed at 100, 85, 70, 60, 50, 30, 10, 3, 1, 0.3, 0.1, 0.03, 0.01, 0.003 and 0.001 μM. Finally, 100 μl of 40 μg/ml of FVIII as a sample antigen was added to each cell. LPS and free protein were used as positive and baseline controls, respectively. TNF-α and TGF-β ELISA were conducted as per the manufacturer's instructions (R & D Systems).

B57BL6 Mice = assay: Anti-FVIII titer analysis in mice given FVIII co-mixed with compound SC QW 4 weeks, then FVIII re-challenge (Example 1); type: in vivo; conditions: end of treatment after one-week washout
Method: (§6) OPLT was dissolved in sterile PBS, and pH was adjusted to approximately 7.5. OPLS, a comparator compound, was dissolved in sterile PBS, and pH was adjusted to approximately 7.5. FVIII in PBS was used as a control. For treatment, FVIII was co-mixed with OPLT, OPLS or diluted in PBS before administration, as per group assignment for each animal. For re-challenge, FVIII was administered alone SC to all animals regardless of group assignment. […] For a head-to-head comparison, 5 mg/injection was selected for OPLT. FVIII was dosed at 1 μg/injection.
The study was conducted in two parts: a treatment phase and a re-challenge phase. The objective of the treatment phase was to test the ability of OPLT to reduce the immunogenicity of FVIII as an antigen compared to animals administered FVIII or FVIII+OPLS. Animals were injected with FVIII, FVIII+OPLT, or FVIII+OPLS SC QW for 4 weeks. Blood samples were collected for anti-FVIII titer analysis after a one-week washout period from the last dose. The objective of the re-challenge phase of the study was to evaluate the duration of tolerance. Animals that have been successfully tolerized toward FVIII will not mount a robust immune response towards FVIII upon subsequent exposure to FVIII. After the washout period, animals were injected with (1 μg) FVIII SC QW for 2 weeks. Blood samples were collected one week after each FVIII injection for anti-FVIII titer analysis.

FoxP3+/CD4+ T-cell = assay: Ex vivo flow cytometry of splenocytes for FoxP3+/CD4+ T-cells after FVIII treatment period (Example 1); type: in vivo, mice
Method: as §6
One week after the last dose in the treatment period, one animal from each group was selected at random for ex vivo analysis of the T-cell population. Spleens were collected and a single-cell suspension was prepared for cellular phenotyping by flow cytometry. Cells were stained and gated for CD4+ T-cells. FoxP3 expression level was evaluated for each animal.

[2] = test system: RAW264.7 mouse monocyte macrophage cells; assay: SAR screen in RAW 264.7 cells with FVIII antigen, TGF-β ELISA (Example 5); type: cell-based; conditions: free compounds dosed in mM range
Excerpt: as §4
All molecules were formulated in RPMI media in aseptic conditions. The pH was adjusted to approximately 7.5 before dosing cells. 1,2-dimyristoyl-sn-glycero-3-phosphocholine (DM PC):PS liposomes were made at 70:30 molar ratio to make “PS” liposomes. The remaining liposomes were made by hydrating a DMPC lipid layer in PBS buffer containing a test compound to give a final molar ratio of 70:30 of DMPC:test compound.
as §5

## C[C@@H]1C[C@H]2[C@@H]3CCC4=CC(=O)C=C[C@]4(C)[C@@]3(F)[C@@H](O)C[C@]2(C)[C@@]1(O)C(=O)CO [Dexamethasone, dexamethasone]
TLR2; PGN 0 ng/ml
  TNF-α mean: 0 pg/mL
TLR2; PGN 1 ng/ml, CTL 730
  TNF-α mean: 0 pg/mL
TLR2; PGN 10 ng/ml, CTL 725
  TNF-α mean: 0 pg/mL
TLR2; PGN 100 ng/ml, CTL 834
  TNF-α mean: 0 pg/mL
TLR3; PolyI:C 0 ng/ml
  TNF-α mean: 0 pg/mL
TLR3; PolyI:C 1 ng/ml, CTL 0
  TNF-α mean: 0 pg/mL
TLR3; PolyI:C 10 ng/ml, CTL 109
  TNF-α mean: 0 pg/mL
TLR3; PolyI:C 100 ng/ml, CTL 162
  TNF-α mean: 0 pg/mL
TLR4; LPS 0 ng/ml
  TNF-α mean: 0 pg/mL
TLR4; LPS 1 ng/ml, CTL 143
  TNF-α mean: 0 pg/mL
TLR4; LPS 10 ng/ml, CTL 840
  TNF-α mean: 0 pg/mL
TLR4; LPS 100 ng/ml, CTL 1091
  TNF-α mean: 0 pg/mL
TLR7; Poly U 0 ng/ml
  TNF-α mean: 0 pg/mL
TLR7; Poly U 1 ng/ml, CTL 44
  TNF-α mean: 0 pg/mL
TLR7; Poly U 10 ng/ml, CTL 51
  TNF-α mean: 0 pg/mL
TLR7; Poly U 100 ng/ml, CTL 229
  TNF-α mean: 41 pg/mL
TLR9; ODN CpG 0 ng/ml
  TNF-α mean: 0 pg/mL
TLR9; ODN CpG 1 ng/ml, CTL 0
  TNF-α mean: 0 pg/mL
TLR9; ODN CpG 10 ng/ml, CTL 338
  TNF-α mean: 0 pg/mL
TLR9; ODN CpG 100 ng/ml, CTL 1220
  TNF-α mean: 0 pg/mL

## phosphatidyl serine [PS, reference compound]
Splenocytes
  increase in Foxp3+/CD4+ compared to control: 76%
[1]; OPLS versus PS
  fold difference between the ability of OPLS and PS to induce TNF-α: 1,000 fold

## N[C@@H](CSc1ccccc1)C(=O)O [SPLC, S-phenyl-L-cysteine]
[1]; FVIII antigen
  TNF-α induction: failed to induce TNF-α

## CO[C@H]1C[C@@H]2CC[C@@H](C)[C@@](O)(O2)C(=O)C(=O)N2CCCC[C@H]2C(=O)O[C@H]([C@H](C)C[C@@H]2CC[C@@H](O)[C@H](OC)C2)CC(=O)[C@H](C)/C=C(\C)[C@@H](O)[C@@H](OC)C(=O)[C@H](C)C[C@H](C)/C=C/C=C/C=C/1C [Rapamycin, rapamycin]
TLR2; PGN 0 ng/ml
  TNF-α mean: 0 pg/mL
TLR2; PGN 1 ng/ml, CTL 730
  TNF-α mean: 0 pg/mL
TLR2; PGN 10 ng/ml, CTL 725
  TNF-α mean: 0 pg/mL
TLR2; PGN 100 ng/ml, CTL 834
  TNF-α mean: 0 pg/mL
TLR3; PolyI:C 0 ng/ml
  TNF-α mean: 0 pg/mL
TLR3; PolyI:C 1 ng/ml, CTL 0
  TNF-α mean: 0 pg/mL
TLR3; PolyI:C 10 ng/ml, CTL 109
  TNF-α mean: 0 pg/mL
TLR3; PolyI:C 100 ng/ml, CTL 162
  TNF-α mean: 0 pg/mL
TLR4; LPS 0 ng/ml
  TNF-α mean: 0 pg/mL
TLR4; LPS 1 ng/ml, CTL 143
  TNF-α mean: 0 pg/mL
TLR4; LPS 10 ng/ml, CTL 840
  TNF-α mean: 0 pg/mL
TLR4; LPS 100 ng/ml, CTL 1091
  TNF-α mean: 0 pg/mL
TLR7; Poly U 0 ng/ml
  TNF-α mean: 0 pg/mL
TLR7; Poly U 1 ng/ml, CTL 44
  TNF-α mean: 0 pg/mL
TLR7; Poly U 10 ng/ml, CTL 51
  TNF-α mean: 29 pg/mL
TLR7; Poly U 100 ng/ml, CTL 229
  TNF-α mean: 14 pg/mL
TLR9; ODN CpG 0 ng/ml
  TNF-α mean: 0 pg/mL
TLR9; ODN CpG 1 ng/ml, CTL 0
  TNF-α mean: 0 pg/mL
TLR9; ODN CpG 10 ng/ml, CTL 338
  TNF-α mean: 0 pg/mL
TLR9; ODN CpG 100 ng/ml, CTL 1220
  TNF-α mean: 0 pg/mL

## N[C@@H](COP(=O)(O)O)C(=O)O [OPLS, O-phospho-L-serine, reference compound]
B57BL6 Mice
  anti-FVIII titers versus FVIII control group: statistically lower than the FVIII control group
B57BL6 Mice; 5 mg/injection + FVIII SC QW 4 weeks, FVIII control 8/8
  animals that developed anti-FVIII antibodies: 5/8
FoxP3+/CD4+ T-cell; 5 mg/injection co-mixed with FVIII 1 μg SC QW 4 weeks, splenocytes of one animal per group one week after last dose
  increase in FoxP3+/CD4+ compared to the FVIII alone group: 66%
FoxP3+/CD4+ T-cell; 5 mg/injection co-mixed with FVIII SC QW 4 weeks, one animal per group, FVIII alone 2.94
  FoxP3+/CD4+ T-cell (flow cytometry of splenocytes): 4.89

## N[C@@H](Cc1ccc(OCc2ccccc2)cc1)C(=O)O [OBLT, O-benzyl-L-tyrosine]
[1]; FVIII antigen
  TNF-α induction: failed to induce TNF-α

## N[C@@H](COCc1ccccc1)C(=O)O [OBLS, O-Benzyl-L-serine]
[1]; FVIII antigen
  TNF-α induction: failed to induce TNF-α

## N[C@@H](CSCc1ccccc1)C(=O)O [SBLC, S-benzyl-L-cysteine]
[1]; FVIII antigen
  TNF-α induction: failed to induce TNF-α

## N[C@@H](CCS(=O)(=O)O)C(=O)O [LHA, L-homocysteic acid]
[1]; free compounds dosed in mM range, FVIII antigen
  TNF-α production (suppression) versus OPLS: more potent inhibitors of TNF-α
[2]
  TGF-β production versus OPLS: more potent inducers of TGF-β
